Assay results published in article doi:10.1101/2024.02.23.581731v1 (biorxiv, 2024).

Target: T1, h5-HT3AR (Homo sapiens, UniProt P46098)
T1 sequence (P46098 24-478): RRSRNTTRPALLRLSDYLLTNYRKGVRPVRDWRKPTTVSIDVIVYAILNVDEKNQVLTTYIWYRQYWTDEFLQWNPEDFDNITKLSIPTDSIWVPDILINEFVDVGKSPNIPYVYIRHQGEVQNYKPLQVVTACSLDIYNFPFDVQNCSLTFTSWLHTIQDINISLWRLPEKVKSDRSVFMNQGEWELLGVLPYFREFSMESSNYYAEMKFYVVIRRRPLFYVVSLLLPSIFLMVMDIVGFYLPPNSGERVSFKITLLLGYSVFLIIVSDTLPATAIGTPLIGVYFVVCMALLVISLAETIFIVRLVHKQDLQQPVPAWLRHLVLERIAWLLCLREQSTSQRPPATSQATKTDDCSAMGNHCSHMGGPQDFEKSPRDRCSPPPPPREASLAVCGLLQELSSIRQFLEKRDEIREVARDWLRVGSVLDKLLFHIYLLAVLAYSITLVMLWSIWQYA
Experiment: [3H]-GR65630 displacement, HEK-293 membranes
Format: binding

Cc1ccc(Sc2ccccc2N2CCNCC2)c(C)c1 [vortioxetine]
Ki: 24 nM
